Earlier results on 2 molecules are cited in patent US8067462B2, “Processes of making sesquiterpenoid tashironin, its analogs and their uses” (The Trustees of Columbia University in the City of New York, priority 2004, dated 2011).

The test system of this series is neurite growth.

Turning to `C[C@@H]1CC[C@@]2(O)C13CC(=O)C1(C)C2(C)CO[C@]1(O)[C@@H]3O` [11-O-debenzoyltashironin], under “promotes neurite growth at concentrations as low as (Huang et al. 2001)”, the “concentration at which neurite growth is promoted” value was not below 0.1 µmol.

Turning to tashironin, the neurotrophic activity entry (reported on isolation from the wood of illicium tashiroi (Fukuyama et al. 1995)) was “inactive”.
